Molecular target: Protein arginine deiminase 4 (PAD4) (Homo sapiens, UniProt Q9UM07)
Assay: PAD4 ammonia release assay
Format: biochemical
Conditions: PAD4 ammonia release assay, BAEE substrate, 60 min at RT; read-out: Average IC50 Abs
Method: 1) Compound preparation: The compounds were diluted to 80× final concentrations. 2) The compounds were transferred to a 384-well assay plate by Tecan. DMSO: 1.25%. 3) Preparation of 1×Assay buffer: 100 mM HEPES, PH=8.0, 2 mM CaCl2, 50 mM NaCl, 0.1 mM TCEP, 0.6 mg/ml BSA. 4) 2× enzyme working solution (PAD4:20 nM) was prepared with assay buffer, and 10 μL of the obtained working solution were added to the 384-well assay plates. 5) The plate was centrifuged at 1000 rpm for 1 min. 6) After the centrifuge, the plate was incubated at RT for 15 min. 7) 2×BAEE substrate mix (600 μM) was prepared with assay buffer and 10 μL of the obtained substrate mix were added to each well. 8) The plate was centrifuged at 1000 rpm for 1 min and then incubated at RT for 60 min. 9) 1.5× detection mix (DTT:4 mM, OPA:3 mM, EDTA: 30 mM) was prepared, and 10 μL of the mix were added to the plate. 10) The plate was centrifuged at 1000 rpm for 1 min and then incubated at RT for 120 min. 11) The 384-well plates were placed into the Envision (PerkinElmer) and the assay data were collected.
The percent (%) inhibition at each concentration of compound was calculated based on and relative to the signal in the HPE (50 μM ref. compound) and ZPE (1.25% DMSO) wells included within each assay plate. The HPE worked as 100% inhibition, and the ZPE worked as 0% inhibition. The concentrations and % inhibition values for tested compounds were plotted and the concentration of compound required for 50% inhibition (IC50) was determined with a Four-parameter logistic dose response equation. The endpoint value (IC50) for the reference compound was evaluated in each experiment as a quality control measure. If the endpoint value is within 3-fold of the expected value, then the experiment quality is deemed as acceptable. The results are provided in Table 1 below. ≤0.1 μM=“++++”; >0.1 and ≤0.5 μM=“+++”; >0.5 and ≤5.0 μM=“++”; >5.0 μM=“+”. “−”=not available.

Sequence of Protein arginine deiminase 4 (PAD4) (Q9UM07 whole entry): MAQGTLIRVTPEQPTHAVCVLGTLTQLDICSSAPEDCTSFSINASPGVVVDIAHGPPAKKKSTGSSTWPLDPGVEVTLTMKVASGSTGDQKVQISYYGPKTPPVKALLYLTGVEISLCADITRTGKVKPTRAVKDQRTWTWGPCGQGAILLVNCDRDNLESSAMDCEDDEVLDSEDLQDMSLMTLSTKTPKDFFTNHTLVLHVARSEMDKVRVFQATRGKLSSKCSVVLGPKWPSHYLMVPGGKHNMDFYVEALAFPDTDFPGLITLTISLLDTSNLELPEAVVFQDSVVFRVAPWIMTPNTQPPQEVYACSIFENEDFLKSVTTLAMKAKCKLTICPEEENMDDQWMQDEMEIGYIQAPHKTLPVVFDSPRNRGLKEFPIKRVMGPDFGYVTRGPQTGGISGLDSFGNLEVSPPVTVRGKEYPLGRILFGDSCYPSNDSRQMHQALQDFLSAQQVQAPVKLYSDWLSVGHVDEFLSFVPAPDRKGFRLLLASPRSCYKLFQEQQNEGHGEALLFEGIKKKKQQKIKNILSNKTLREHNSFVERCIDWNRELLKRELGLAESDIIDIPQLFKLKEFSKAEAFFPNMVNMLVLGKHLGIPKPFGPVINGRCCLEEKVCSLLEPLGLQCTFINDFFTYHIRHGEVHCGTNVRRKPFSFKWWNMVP

| IC50 [nM] | Compound |
| --- | --- |
| 500 to 5000 | COc1cc(C(=O)N2C[C@H](N)C[C@@H](F)C2)cc2nc(-c3cc4cccc5c4n3CCN5Cc3cnn(C)c3)n(C)c12 [Example 26, ((3R,5R)-3-amino-5-fluoropiperidin-1-yl)(7-methoxy-1-methyl-2-(1-((1-methyl-1H-pyrazol-4-yl)methyl)-2,3-dihydro-1H-pyrrolo[1,2,3-de]quinoxalin-5-yl)-1H-benzo[d]imidazol-5-yl)methanone] |
| 100 to 500 | COc1cc(C(=O)N2C[C@H](N)C[C@@H](F)C2)cc2nc(-c3cc4cccc5c4n3CCN5CCCO)n(Cc3ccc(F)cc3)c12 [Example 36, ((3R,5R)-3-amino-5-fluoropiperidin-1-yl)(1-(4-fluorobenzyl)-2-(1-(3-hydroxypropyl)-2,3-dihydro-1H-pyrrolo[1,2,3-de]quinoxalin-5-yl)-7-methoxy-1H-benzo[d]imidazol-5-yl)methanone] |
| 100 to 500 | CCn1cc(Cn2c(-c3cc4cccc5c4n3CCN5CCO)nc3cc(C(=O)N4C[C@H](N)C[C@@H](F)C4)cc(F)c32)cn1 [Example 39, ((3R,5R)-3-amino-5-fluoropiperidin-1-yl)(1-((1-ethyl-1H-pyrazol-4-yl)methyl)-7-fluoro-2-(1-(2-hydroxyethyl)-2,3-dihydro-1H-pyrrolo[1,2,3-de]quinoxalin-5-yl)-1H-benzo[d]imidazol-5-yl)methanone] |
| 100 to 500 | CCn1cc(Cn2c(-c3cc4cccc5c4n3CCN5CCCOC)nc3cc(C(=O)N4C[C@H](N)C[C@@H](F)C4)cc(F)c32)cn1 [Example 41, ((3R,5R)-3-amino-5-fluoropiperidin-1-yl)(1-((1-ethyl-1H-pyrazol-4-yl)methyl)-7-fluoro-2-(1-(3-methoxypropyl)-2,3-dihydro-1H-pyrrolo[1,2,3-de]quinoxalin-5-yl)-1H-benzo[d]imidazol-5-yl)methanone] |
| > 5000 | COc1cc(C(=O)N2C[C@H]3CC[C@@H]2[C@@H]3N)cc2nc(-c3cc4cccc5c4n3CCN5CCCO)n(Cc3cnn(C)c3)c12 [Example 45, ((1R,4R,7R)-7-amino-2-azabicyclo[2.2.1]heptan-2-yl)(2-(1-(3-hydroxypropyl)-2,3-dihydro-1H-pyrrolo[1,2,3-de]quinoxalin-5-yl)-7-methoxy-1-((1-methyl-1H-pyrazol-4-yl)methyl)-1H-benzo[d]imidazol-5-yl)methanone] |
| 100 to 500 | COc1cc(C(=O)N2C[C@H](N)C[C@@H](F)C2)cc2nc(-c3cc4cccc5c4n3CCN5CCCO)n(CC(F)F)c12 [Example 51, ((3R,5R)-3-amino-5-fluoropiperidin-1-yl)(1-(2,2-difluoroethyl)-2-(1-(3-hydroxypropyl)-2,3-dihydro-1H-pyrrolo[1,2,3-de]quinoxalin-5-yl)-7-methoxy-1H-benzo[d]imidazol-5-yl)methanone] |

More lines, now with the values behind:

| Compound | IC50 [nM] |
| --- | --- |
| COc1cc(C(=O)N2CCC[C@@H](N)C2)cc2nc(-c3cc4cccc5c4n3CCN5CCCOC(=O)NC3CC3)n(C)c12 [Example 27, (R)-3-(5-(5-(3-aminopiperidine-1-carbonyl)-7-methoxy-1-methyl-1H-benzo[d]imidazol-2-yl)-2,3-dihydro-1H-pyrrolo[1,2,3-de]quinoxalin-1-yl)propyl cyclopropylcarbamate] | 500 to 5000 |
| COc1cc(C(=O)N2C[C@H](N)C[C@@H](F)C2)cc2nc(-c3cc4cccc5c4n3CCN5C(=O)CO)n(C)c12 [Example 28, 1-(5-(5-((3R,5R)-3-amino-5-fluoropiperidine-1-carbonyl)-7-methoxy-1-methyl-1H-benzo[d]imidazol-2-yl)-2,3-dihydro-1H-pyrrolo[1,2,3-de]quinoxalin-1-yl)-2-hydroxyethan-1-one] | 500 to 5000 |
| COc1cc(C(=O)N2C[C@H](N)C[C@@H](F)C2)cc2nc(-c3cc4cccc5c4n3CCN5C(=O)COC(C)=O)n(C)c12 [Example 29, 2-(5-(5-((3R,5R)-3-amino-5-fluoropiperidine-1-carbonyl)-7-methoxy-1-methyl-1H-benzo[d]imidazol-2-yl)-2,3-dihydro-1H-pyrrolo[1,2,3-de]quinoxalin-1-yl)-2-oxoethyl acetate)] | 500 to 5000 |
| COc1cc(C(=O)N2C[C@H](N)C[C@@H](F)C2)cc2nc(-c3cc4cccc5c4n3CCN5C(=O)CC#N)n(C)c12 [Example 30, 3-(5-(5-((3R,5R)-3-amino-5-fluoropiperidine-1-carbonyl)-7-methoxy-1-methyl-1H-benzo[d]imidazol-2-yl)-2,3-dihydro-1H-pyrrolo[1,2,3-de]quinoxalin-1-yl)-3-oxopropanenitrile] | > 5000 |
| COc1cc(C(=O)N2CCC[C@@H](N)C2)cc2nc(-c3cc4cccc5c4n3CCN5C(=O)c3ccccc3)n(C)c12 [Example 31, (R)-(3-aminopiperidin-1-yl)(2-(1-benzoyl-2,3-dihydro-1H-pyrrolo[1,2,3-de]quinoxalin-5-yl)-7-methoxy-1-methyl-1H-benzo[d]imidazol-5-yl)methanone] | > 5000 |
| COc1cc(C(=O)N2CCC[C@@H](N)C2)cc2nc(-c3cc4cccc5c4n3CCN5C3CC(N)C3)n(C)c12 (stereo partly drawn) [Example 32, (R)-(2-(1-(3-aminocyclobutyl)-2,3-dihydro-1H-pyrrolo[1,2,3-de]quinoxalin-5-yl)-7-methoxy-1-methyl-1H-benzo[d]imidazol-5-yl)(3-aminopiperidin-1-yl)methanone] | 500 to 5000 |
| COc1cc(C(=O)N2CCC[C@@H](N)C2)cc2nc(-c3cc4cccc5c4n3CCN5C3CC(NC(C)=O)C3)n(C)c12 (stereo partly drawn) [Example 33, (R)—N-(3-(5-(5-(3-aminopiperidine-1-carbonyl)-7-methoxy-1-methyl-1H-benzo[d]imidazol-2-yl)-2,3-dihydro-1H-pyrrolo[1,2,3-de]quinoxalin-1-yl)cyclobutyl)acetamide] | 500 to 5000 |
| COc1cc(C(=O)N2CCC3(CC3N)C2)cc2nc(-c3cc4cccc5c4n3CCN5CCCO)n(CC3CC3)c12 (centres unmarked) [Example 52, (1-amino-5-azaspiro[2.4]heptan-5-yl)(1-(cyclopropylmethyl)-2-(1-(3-hydroxypropyl)-2,3-dihydro-1H-pyrrolo[1,2,3-de]quinoxalin-5-yl)-7-methoxy-1H-benzo[d]imidazol-5-yl)methanone] | > 5000 |
| COc1cc(C(=O)N2CC3CNC3C2)cc2nc(-c3cc4cccc5c4n3CCN5CCCO)n(CC3CC3)c12 (centres unmarked) [Example 53, (3,6-diazabicyclo[3.2.0]heptan-3-yl)(1-(cyclopropylmethyl)-2-(1-(3-hydroxypropyl)-2,3-dihydro-1H-pyrrolo[1,2,3-de]quinoxalin-5-yl)-7-methoxy-1H-benzo[d]imidazol-5-yl)methanone] | > 5000 |
| COc1cc(C(=O)N2CC3C(N)C3C2)cc2nc(-c3cc4cccc5c4n3CCN5CCCO)n(CC3CC3)c12 (centres unmarked) [Example 54, (6-amino-3-azabicyclo[3.1.0]hexan-3-yl)(1-(cyclopropylmethyl)-2-(1-(3-hydroxypropyl)-2,3-dihydro-1H-pyrrolo[1,2,3-de]quinoxalin-5-yl)-7-methoxy-1H-benzo[d]imidazol-5-yl)methanone] | > 5000 |
| COc1cc(C(=O)N2CCC3CC3(N)C2)cc2nc(-c3cc4cccc5c4n3CCN5CCCO)n(CC3CC3)c12 (centres unmarked) [Example 55, (1-amino-3-azabicyclo[4.1.0]heptan-3-yl)(1-(cyclopropylmethyl)-2-(1-(3-hydroxypropyl)-2,3-dihydro-1H-pyrrolo[1,2,3-de]quinoxalin-5-yl)-7-methoxy-1H-benzo[d]imidazol-5-yl)methanone] | 500 to 5000 |
| COc1cc(C(=O)N2CCC3(CC2)CC3N)cc2nc(-c3cc4cccc5c4n3CCN5CCCO)n(CC3CC3)c12 (centres unmarked) [Example 56, (1-amino-6-azaspiro[2.5]octan-6-yl)(1-(cyclopropylmethyl)-2-(1-(3-hydroxypropyl)-2,3-dihydro-1H-pyrrolo[1,2,3-de]quinoxalin-5-yl)-7-methoxy-1H-benzo[d]imidazol-5-yl)methanone] | > 5000 |
| COc1cc(C(=O)N2CC(F)(F)C3(CNC3)C2)cc2nc(-c3cc4cccc5c4n3CCN5CCCO)n(CC3CC3)c12 [Example 57, (1-(cyclopropylmethyl)-2-(1-(3-hydroxypropyl)-2,3-dihydro-1H-pyrrolo[1,2,3-de]quinoxalin-5-yl)-7-methoxy-1H-benzo[d]imidazol-5-yl)(8,8-difluoro-2,6-diazaspiro[3.4]octan-6-yl)methanone] | > 5000 |
| COc1cc(C(=O)N2CC[C@H](F)[C@H](N)C2)cc2nc(-c3cc4cccc5c4n3CCN5CCCO)n(CC3CC3)c12 [Example 58, ((3R,4S)-3-amino-4-fluoropiperidin-1-yl)(1-(cyclopropylmethyl)-2-(1-(3-hydroxypropyl)-2,3-dihydro-1H-pyrrolo[1,2,3-de]quinoxalin-5-yl)-7-methoxy-1H-benzo[d]imidazol-5-yl)methanone] | 500 to 5000 |

— patent publication US20250136607A1 (REGOR PHARMACEUTICALS, INC., priority 2021, published 2025)
